Reference: ChEMBL document CHEMBL1201862, “PubChem BioAssay data set” (2004)
Values belong to the compound of their own block, whether it stands above or below them. Active and inactive are the calls of the source.

Assays:
Coagulation factor XII = Coagulation factor XII (Homo sapiens, UniProt P00748); assay type: functional;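 note: activated factor XIIa alpha cleaving a fluorogenic AMC peptide substrate; inhibitor potency from loss of enzyme activity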
Hexokinase HKDC1 = target: T1, Hexokinase HKDC1 (Homo sapiens, UniProt Q2TB90); test: activation of HKDC1 glucose phosphorylation – biochemical, W721R variant, dose response (AID 504730); assay type: functional
T1 sequence (Q2TB90 whole entry): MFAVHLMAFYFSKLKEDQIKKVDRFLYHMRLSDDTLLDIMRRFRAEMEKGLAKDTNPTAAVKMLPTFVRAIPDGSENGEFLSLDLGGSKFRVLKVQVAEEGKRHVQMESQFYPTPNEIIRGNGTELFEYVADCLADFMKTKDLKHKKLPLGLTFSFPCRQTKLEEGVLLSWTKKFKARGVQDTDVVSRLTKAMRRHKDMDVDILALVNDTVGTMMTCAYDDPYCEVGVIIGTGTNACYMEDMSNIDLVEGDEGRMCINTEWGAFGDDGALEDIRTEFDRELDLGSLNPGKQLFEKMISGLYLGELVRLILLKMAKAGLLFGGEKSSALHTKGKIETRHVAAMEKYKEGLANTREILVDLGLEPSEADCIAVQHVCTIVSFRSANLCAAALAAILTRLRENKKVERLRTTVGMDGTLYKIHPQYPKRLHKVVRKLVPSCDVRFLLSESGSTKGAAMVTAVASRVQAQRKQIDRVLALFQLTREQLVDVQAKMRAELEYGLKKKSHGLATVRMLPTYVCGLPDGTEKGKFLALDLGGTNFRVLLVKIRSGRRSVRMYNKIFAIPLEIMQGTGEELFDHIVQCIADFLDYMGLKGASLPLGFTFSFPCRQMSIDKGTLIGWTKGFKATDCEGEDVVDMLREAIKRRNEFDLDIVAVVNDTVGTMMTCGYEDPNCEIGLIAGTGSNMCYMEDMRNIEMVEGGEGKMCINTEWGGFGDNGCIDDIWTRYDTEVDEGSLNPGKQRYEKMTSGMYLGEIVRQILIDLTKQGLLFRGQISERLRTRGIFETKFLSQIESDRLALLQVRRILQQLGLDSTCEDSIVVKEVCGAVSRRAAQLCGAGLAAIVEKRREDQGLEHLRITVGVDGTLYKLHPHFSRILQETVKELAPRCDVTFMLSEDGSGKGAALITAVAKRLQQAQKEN

Hexokinase-1 = target: T2, Hexokinase-1 (Homo sapiens, UniProt P19367); test: HK1 enzyme activation by HKDC1 hits – biochemical, selectivity assay for HKDC1 activator project, dose response (AID 504762); assay type: functional
T2 sequence (P19367 whole entry): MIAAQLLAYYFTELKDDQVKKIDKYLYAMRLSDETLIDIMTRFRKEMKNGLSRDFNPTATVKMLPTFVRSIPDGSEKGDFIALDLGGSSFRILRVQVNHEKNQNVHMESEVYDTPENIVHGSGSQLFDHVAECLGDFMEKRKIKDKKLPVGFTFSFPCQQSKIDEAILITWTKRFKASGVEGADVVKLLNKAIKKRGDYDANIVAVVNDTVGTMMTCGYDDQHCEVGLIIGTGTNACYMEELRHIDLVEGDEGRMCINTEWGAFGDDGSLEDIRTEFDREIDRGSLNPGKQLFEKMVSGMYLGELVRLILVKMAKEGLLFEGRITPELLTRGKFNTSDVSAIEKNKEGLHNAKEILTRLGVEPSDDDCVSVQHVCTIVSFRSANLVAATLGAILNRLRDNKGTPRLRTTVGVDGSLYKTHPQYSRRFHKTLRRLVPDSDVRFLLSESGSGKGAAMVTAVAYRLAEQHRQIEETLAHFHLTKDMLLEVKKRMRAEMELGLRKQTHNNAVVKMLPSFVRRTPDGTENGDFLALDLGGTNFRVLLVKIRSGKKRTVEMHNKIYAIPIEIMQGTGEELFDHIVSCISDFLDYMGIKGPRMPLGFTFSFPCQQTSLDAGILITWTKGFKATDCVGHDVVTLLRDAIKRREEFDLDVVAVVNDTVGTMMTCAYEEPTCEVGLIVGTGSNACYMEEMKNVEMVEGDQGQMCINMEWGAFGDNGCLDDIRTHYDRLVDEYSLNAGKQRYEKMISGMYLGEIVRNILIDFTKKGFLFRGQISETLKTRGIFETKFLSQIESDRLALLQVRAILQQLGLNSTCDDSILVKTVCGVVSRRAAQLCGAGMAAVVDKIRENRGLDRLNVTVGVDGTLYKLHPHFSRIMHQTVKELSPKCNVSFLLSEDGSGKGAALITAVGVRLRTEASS

[1] = target: Glucose-6-phosphate 1-dehydrogenase (Homo sapiens, UniProt P11413); test: inhibition of Homo sapiens G6PD, dose series – biochemical, fluorescence, selectivity assay for P. falciparum G6PD inhibitor project, dose response (AID 504792); assay type: functional
[2] = target: T3, Mannose-6-phosphate isomerase (Homo sapiens, UniProt P34949); test: MPI inhibition at elevated mannose 6-phosphate – biochemical, fluorescence intensity, high mannose 6-phosphate, primary screen (AID 1220)
T3 sequence (P34949 whole entry): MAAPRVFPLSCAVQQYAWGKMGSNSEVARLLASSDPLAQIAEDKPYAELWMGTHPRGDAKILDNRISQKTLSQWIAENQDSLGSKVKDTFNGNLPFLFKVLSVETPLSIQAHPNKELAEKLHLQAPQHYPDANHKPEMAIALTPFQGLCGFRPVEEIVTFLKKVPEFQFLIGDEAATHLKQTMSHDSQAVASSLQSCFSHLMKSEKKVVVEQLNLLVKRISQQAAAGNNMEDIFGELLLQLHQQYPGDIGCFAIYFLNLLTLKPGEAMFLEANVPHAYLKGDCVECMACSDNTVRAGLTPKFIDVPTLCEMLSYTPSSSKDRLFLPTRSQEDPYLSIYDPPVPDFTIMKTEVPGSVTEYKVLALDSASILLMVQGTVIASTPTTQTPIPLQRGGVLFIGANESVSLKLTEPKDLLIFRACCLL

[3] = target: Induced myeloid leukemia cell differentiation protein Mcl-1 (Homo sapiens, UniProt Q07820); assay type: functional
[4] = target: T4, Rac GTPase-activating protein 1 (Homo sapiens, UniProt Q9H0H5); test: blockers of MgcRacGAP-driven Rac1 GTP hydrolysis – biochemical, ADP Hunter fluorescence, primary and confirmatory, confirmation (AID 624330); assay type: functional
T4 sequence (Q9H0H5 whole entry): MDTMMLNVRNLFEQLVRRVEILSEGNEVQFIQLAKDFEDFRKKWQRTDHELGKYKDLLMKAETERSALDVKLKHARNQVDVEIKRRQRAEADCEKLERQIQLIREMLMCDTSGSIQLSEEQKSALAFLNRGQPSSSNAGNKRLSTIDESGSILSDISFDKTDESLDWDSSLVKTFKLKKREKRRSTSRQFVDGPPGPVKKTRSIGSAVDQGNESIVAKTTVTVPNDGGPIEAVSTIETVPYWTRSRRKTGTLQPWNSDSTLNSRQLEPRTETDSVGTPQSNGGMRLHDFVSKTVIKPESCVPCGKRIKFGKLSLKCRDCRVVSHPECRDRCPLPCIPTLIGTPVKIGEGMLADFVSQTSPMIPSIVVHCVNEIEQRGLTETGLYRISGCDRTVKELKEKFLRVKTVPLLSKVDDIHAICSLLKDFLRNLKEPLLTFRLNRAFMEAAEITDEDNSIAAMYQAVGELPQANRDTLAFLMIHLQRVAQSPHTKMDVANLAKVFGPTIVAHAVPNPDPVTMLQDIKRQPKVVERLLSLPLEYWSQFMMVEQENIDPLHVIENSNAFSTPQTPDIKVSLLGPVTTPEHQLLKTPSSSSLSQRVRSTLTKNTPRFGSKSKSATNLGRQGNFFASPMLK

Mucolipin-3 = target: T5, Mucolipin-3 (Homo sapiens, UniProt Q8TDD5); test: Fluorescence counterscreen assay for […] agonists: dose response cell-based high-throughput screening assay to identify agonists of the transient receptor potential channel ML3 (TRPML3). [Related pubchem assays: 1424, 1448 ]; assay type: functional
T5 sequence (Q8TDD5 whole entry): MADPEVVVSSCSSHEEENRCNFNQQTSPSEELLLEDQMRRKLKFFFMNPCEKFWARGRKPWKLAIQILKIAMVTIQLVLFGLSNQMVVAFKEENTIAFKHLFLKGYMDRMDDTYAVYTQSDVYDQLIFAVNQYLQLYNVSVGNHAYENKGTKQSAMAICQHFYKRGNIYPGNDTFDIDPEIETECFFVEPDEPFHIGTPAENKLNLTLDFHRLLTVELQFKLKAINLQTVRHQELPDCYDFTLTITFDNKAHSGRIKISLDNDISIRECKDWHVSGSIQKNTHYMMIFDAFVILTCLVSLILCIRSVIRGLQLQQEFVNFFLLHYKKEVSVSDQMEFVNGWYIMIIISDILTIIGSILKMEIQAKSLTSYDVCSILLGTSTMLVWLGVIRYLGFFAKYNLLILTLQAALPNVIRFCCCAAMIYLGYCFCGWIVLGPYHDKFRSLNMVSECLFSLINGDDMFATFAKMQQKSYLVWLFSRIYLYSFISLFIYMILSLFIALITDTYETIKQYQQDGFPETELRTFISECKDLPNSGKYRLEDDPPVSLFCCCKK

Ion channel NompC = Ion channel NompC (Danio rerio, UniProt Q7T1G6); test: Dose response cell-based high-throughput screening assay for agonists of the transient receptor potential channel N1 (TRPN1). [Related pubchem assays (depositor defined):AID1424, AID1448]; assay type: functional
Ion channel NompC, sequence (Q7T1G6 whole entry): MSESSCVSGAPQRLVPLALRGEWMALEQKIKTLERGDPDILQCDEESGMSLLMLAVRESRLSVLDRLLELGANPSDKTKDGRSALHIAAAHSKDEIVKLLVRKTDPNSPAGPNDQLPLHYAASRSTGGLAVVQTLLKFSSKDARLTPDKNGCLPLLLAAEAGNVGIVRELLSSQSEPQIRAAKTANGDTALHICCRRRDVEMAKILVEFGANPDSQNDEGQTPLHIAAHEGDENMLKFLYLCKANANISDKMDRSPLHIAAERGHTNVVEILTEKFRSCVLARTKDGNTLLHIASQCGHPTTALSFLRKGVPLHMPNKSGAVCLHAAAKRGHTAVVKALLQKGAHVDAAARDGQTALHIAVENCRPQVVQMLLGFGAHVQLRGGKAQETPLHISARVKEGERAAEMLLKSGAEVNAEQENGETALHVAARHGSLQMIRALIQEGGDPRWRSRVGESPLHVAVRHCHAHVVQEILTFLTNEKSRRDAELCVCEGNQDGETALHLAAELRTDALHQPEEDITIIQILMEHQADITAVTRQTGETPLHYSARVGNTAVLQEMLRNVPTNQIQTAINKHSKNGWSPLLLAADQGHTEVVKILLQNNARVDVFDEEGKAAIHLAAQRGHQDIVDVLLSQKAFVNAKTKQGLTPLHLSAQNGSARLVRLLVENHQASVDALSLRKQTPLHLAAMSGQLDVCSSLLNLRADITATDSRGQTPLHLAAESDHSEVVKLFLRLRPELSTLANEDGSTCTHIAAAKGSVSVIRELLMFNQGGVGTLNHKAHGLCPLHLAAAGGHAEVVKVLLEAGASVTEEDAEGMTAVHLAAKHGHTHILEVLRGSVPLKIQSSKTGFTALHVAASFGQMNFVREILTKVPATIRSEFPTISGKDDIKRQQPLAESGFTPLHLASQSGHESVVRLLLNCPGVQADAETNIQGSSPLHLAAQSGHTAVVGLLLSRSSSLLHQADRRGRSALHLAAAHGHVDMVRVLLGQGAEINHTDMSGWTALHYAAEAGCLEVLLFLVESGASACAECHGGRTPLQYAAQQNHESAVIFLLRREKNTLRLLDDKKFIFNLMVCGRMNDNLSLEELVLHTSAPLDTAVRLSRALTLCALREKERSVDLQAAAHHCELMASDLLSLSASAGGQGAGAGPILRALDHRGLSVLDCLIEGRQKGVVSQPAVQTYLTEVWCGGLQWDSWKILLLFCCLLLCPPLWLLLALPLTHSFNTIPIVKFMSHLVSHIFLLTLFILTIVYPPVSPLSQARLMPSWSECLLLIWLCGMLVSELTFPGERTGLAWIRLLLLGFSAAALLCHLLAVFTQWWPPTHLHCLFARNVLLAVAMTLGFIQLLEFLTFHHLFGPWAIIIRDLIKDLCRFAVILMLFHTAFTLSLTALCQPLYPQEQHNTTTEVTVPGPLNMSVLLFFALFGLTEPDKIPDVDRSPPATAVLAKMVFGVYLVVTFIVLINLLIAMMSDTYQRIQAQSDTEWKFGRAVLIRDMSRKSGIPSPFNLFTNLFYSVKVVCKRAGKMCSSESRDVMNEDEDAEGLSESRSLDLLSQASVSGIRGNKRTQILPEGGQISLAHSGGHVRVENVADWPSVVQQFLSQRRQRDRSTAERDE

Glucose-6-phosphate 1-dehydrogenase, sequence (P11413 whole entry): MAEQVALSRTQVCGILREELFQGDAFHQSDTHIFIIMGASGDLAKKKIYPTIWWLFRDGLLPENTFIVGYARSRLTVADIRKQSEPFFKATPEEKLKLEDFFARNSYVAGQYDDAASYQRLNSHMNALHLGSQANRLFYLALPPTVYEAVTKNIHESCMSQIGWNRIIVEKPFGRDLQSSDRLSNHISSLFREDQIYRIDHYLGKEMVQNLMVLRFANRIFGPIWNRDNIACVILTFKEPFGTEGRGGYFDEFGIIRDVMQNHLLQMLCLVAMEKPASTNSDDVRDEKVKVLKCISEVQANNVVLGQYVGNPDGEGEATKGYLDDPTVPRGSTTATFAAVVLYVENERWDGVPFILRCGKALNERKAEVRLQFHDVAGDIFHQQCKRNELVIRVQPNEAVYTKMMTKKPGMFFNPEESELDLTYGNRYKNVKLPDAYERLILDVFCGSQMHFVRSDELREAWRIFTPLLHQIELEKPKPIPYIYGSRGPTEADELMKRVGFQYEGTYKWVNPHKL
Induced myeloid leukemia cell differentiation protein Mcl-1, sequence (Q07820 whole entry): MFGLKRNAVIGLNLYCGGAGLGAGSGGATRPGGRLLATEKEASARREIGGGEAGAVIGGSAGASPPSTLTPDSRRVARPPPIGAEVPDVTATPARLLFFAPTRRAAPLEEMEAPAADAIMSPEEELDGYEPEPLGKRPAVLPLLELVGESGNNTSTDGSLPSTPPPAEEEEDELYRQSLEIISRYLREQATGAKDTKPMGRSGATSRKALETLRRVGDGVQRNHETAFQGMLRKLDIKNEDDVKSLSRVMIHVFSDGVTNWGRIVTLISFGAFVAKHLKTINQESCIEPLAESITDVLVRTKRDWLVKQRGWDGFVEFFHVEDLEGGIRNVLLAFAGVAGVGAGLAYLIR
Coagulation factor XII, sequence (P00748 20-372 limits assumed): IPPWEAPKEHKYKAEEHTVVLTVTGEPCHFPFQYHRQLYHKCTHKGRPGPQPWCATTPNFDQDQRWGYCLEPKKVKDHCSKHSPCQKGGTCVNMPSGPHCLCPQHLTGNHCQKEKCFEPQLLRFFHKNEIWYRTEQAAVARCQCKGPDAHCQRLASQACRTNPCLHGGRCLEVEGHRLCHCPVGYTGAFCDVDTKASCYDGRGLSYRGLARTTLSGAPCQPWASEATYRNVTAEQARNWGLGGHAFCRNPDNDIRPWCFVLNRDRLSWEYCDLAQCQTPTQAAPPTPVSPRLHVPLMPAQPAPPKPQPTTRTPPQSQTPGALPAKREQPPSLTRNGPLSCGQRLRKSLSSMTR
Coagulation factor XII, sequence (P00748 373-615 limits assumed): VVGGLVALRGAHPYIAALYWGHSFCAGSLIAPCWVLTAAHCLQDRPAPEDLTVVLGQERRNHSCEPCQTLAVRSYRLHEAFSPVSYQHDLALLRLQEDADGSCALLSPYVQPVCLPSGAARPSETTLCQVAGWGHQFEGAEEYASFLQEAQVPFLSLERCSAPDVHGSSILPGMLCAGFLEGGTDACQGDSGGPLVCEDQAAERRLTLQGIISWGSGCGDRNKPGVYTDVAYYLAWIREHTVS

IC50 (Coagulation factor XII): > 50 µM (inactive)
SMILES: COc1ccccc1CN1CCNC(=O)C1CC(=O)N(C)Cc1cnccn1 (stereo unspecified)

EC50 (Hexokinase HKDC1): 25 µM (inactive) | EC50 (Hexokinase-1): 23.9 µM (inactive)
SMILES: COc1ccc(NC2=NN=C(c3ccc4c(c3)OCCO4)CS2)cc1

SMILES: CCn1c2ccccc2c2nc3cc(S(=O)(=O)N4CCOCC4)ccc3nc21
EC50 (Hexokinase HKDC1): > 80 µM (inactive) | EC50 (Hexokinase-1): > 80 µM (inactive) | IC50 [1]: > 80 µM (inactive) | IC50 [2]: 20 µM (active)

IC50 [3]: 2.48 µM (active) | IC50 [4]: 105 µM (active) | EC50 (Mucolipin-3): > 29.9 µM (not active) | EC50 (Ion channel NompC): 4.9 µM (active)
SMILES: O=C1/C(=C\c2ccc(O)cc2)SC(=S)N1/N=C/c1ccc(O)cc1
